Assays:
MDA-MB-231 cells = test: MTT assay, antiproliferative activity in MDA-MB-231; assay type: cell-based, human; details: for in vitro anticancer activity at single concentration: MDA-MB-231, 10μM of each analogue for three days
MCF-7 cells = test: MTT assay, antiproliferative activity in MCF-7; assay type: cell-based, human; details: MCF-7, 10μM of each analogue for three days
MCF10A cells = test: MTT assay with immortalized normal breast cells MCF10A; assay type: cell-based, human; details: for killing of normal MCF10A cells: compared with cancerous MCF-7 and MDA-MB-231 cells
eEF1A = assay type: binding, human; details: biotinylated compound, MDA-MB-231 cell lysate, neutravidin beads, western blot
[1] = system: eukaryotic elongation factor 1A1 (eEF1A1); details: four rounds of biopanning, 12 phage clones per compound sequenced
eEF1A2 = biological target: T1, eEF1A2 (Homo sapiens, UniProt Q05639); assay type: binding; details: biotinylated compounds on SA chip; apparent KDs unreliable
T1 sequence (Q05639 1-463): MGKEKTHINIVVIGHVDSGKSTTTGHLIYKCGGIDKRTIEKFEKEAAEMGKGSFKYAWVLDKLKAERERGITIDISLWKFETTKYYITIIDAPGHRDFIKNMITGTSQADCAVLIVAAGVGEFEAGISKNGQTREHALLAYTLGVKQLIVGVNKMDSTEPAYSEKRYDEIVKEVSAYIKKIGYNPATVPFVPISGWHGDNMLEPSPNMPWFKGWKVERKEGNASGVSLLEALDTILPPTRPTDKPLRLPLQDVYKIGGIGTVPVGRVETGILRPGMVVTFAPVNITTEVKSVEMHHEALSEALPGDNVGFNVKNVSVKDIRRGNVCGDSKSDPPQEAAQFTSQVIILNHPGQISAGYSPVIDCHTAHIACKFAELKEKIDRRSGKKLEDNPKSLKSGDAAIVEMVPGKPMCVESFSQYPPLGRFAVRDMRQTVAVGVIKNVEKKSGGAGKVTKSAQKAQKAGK

protein translation = test: 35S-Methionine labeled protein translation assay; assay type: cell-based; details: 2, 4 and 8μM for 8 hours
[2] = system: Akt (Ser473 and Thr308 phosphorylation); test: Western blot analysis of Akt phosphorylation in MDA-MB-231 cells; assay type: cell-based, human; details: MDA-MB-231, 2μM for 6 hours and 12 hours

Row | Compound | in vitro anticancer activity at single concentration (MDA-MB-231 cells) | in vitro anticancer activity at single concentration (MCF-7 cells) | killing of normal MCF10A cells (MCF10A cells) | binding of eEF1A in pull down (eEF1A) | binding protein recovered from phage clones [1] | decrease in IC50 compared to 10 (MDA-MB-231 cells; MDA-MB-231) | normal MCF10A cells killed (MCF10A cells; at 50μM) | binding of eEF1A2 (SPR) (eEF1A2) | 35S-methionine incorporation into cellular proteins (protein translation) | phosphorylation of serine 473 and threonine 308 in Akt [2]
1 | COc1ccc(Nc2nc3cc4c(=O)cc(-c5ccc(C(=O)N[C@@H](CC(C)C)C(N)=O)cc5)oc4cc3n2[C@H](C)C2CCCCC2)cc1 [Compound 10] | among the most active compounds | among the most active compounds | killed normal MCF10A cell in a similar manner as cancerous MCF-7 and MDA-MB-213 cells | eEF1A did indeed bind | two clones encoded eukaryotic elongation factor 1A1 (eEF1A1) | – | – | – | – | –
2 | CC(C)C[C@H](NC(=O)c1ccc(-c2cc(=O)c3cc([N+](=O)[O-])c(N[C@H](C)C4CCCCC4)cc3o2)cc1)C(N)=O [Compound 39] | – | – | – | – | – | 5 fold | about 65% | selectively bind to eEF1A2 | decreased ^35S-methionine incorporation into cellular proteins in a dose-dependent manner | able to suppress phosphorylation
3 | CC(C)CNc1nc2cc3c(=O)cc(-c4ccc(C(=O)N[C@@H](Cc5ccccc5)C(N)=O)cc4)oc3cc2n1Cc1ccccc1 [Compound 24] | among the most active compounds | among the most active compounds | killed normal MCF10A cell in a similar manner as cancerous MCF-7 and MDA-MB-213 cells | eEF1A did indeed bind | Eukaryotic elongation factor 1A 1 (eEF1A1) was also recovered | – | – | – | – | –
